Experiments:
[1] = tested on: TNF-α in human PBMCs; assay: R848-induced TNF-α in human PBMCs Assay; format: cell-based; conditions: Homo sapiens, PBMC, 4 h, read-out: TNFα (PBMC, R848) (IC50, μM)
Procedure, shortened: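 Human PBMCs at 200K/well were pretreated with compound, then R848-stimulated for 4 h at 37 °C, 5% CO2. Supernatant TNF-α quantified by chemiluminescent ELISA; EC50 from curve fitting.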

[2] = tested on: IL23p19 in THP-1 Cells; assay: LPS Induced IL23p19 in THP-1 Cells (with IFNγ Primed) Assay; format: cell-based; conditions: Homo sapiens, THP-1, 18 h, read-out: IL23 (THP, LPS) (IC50, μM)
Procedure, shortened: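 THP-1 cells (50K/well) primed with IFNγ (50 ng/mL) about 18 h, then given compound and stimulated with LPS for 18 h at 37 °C. Secreted IL-23p19 measured by sandwich ELISA with chemiluminescent read-out, giving EC50. Cell Titer Glo used on the remaining cells for toxicity.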

[3] = target: IRAK4 (Homo sapiens (Human), UniProt Q9NWZ3); assay: IRAK4 ADP-Glo Assay; format: biochemical; conditions: MBP substrate
Sequence of IRAK4 (Q9NWZ3 whole entry): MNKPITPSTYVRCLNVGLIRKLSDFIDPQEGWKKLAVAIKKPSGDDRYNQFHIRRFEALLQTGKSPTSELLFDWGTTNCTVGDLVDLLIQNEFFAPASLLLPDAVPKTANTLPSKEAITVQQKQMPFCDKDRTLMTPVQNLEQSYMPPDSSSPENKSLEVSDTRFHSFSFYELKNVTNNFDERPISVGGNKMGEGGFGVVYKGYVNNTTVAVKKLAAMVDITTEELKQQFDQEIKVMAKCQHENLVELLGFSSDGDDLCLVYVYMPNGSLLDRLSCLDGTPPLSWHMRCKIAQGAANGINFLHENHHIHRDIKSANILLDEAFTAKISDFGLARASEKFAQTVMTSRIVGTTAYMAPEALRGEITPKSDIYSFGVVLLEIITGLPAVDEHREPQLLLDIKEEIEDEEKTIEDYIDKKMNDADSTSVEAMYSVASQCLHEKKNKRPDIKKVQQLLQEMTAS
Procedure, shortened: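 Human IRAK4 kinase reaction with MBP substrate plus ATP in Tris-HCl/MgCl2/BSA/DTT buffer, pH 7.4, run 60 min at room temperature or 30 min at 30 °C. ADP formed was measured by ADP-Glo luminescence after ATP depletion (40 min) and detection reagent (30 min).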

[4] = tested on: TNF-α in Human Primary Monocyte-Derived Dendritic Cells; assay: Gardiquimod-Induced TNF-α in Human Primary Monocyte-Derived Dendritic Cells; format: cell-based; conditions: Dendritic cell, IFNγ-primed monocyte-derived dendritic cells, 4 μg/ml Gardiquimod, 6 hours, TNF-α ELISA, read-out: TNFα (DC, GARD) (IC50)
Procedure, shortened: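 Monocytes differentiated 7 days with GM-CSF and IL-4, then primed 24 h with 50 ng/ml IFN-γ. Compound added 1 h before 6 h stimulation with 4 μg/ml Gardiquimod, 0.5% DMSO final. Supernatant TNF-α measured by chemiluminescent ELISA; EC50 from curve fitting.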

SMILES	IC50 [1] [µM]	IC50 [2] [µM]	IC50 [3] [nM]	IC50 [4] [nM]
CC(C)Oc1cc2c(O[C@@H]3CCCN(C(=O)CC#N)C3)ncc(C#CC3CN(C(=O)OC(C)(C)C)C3)c2cc1C(N)=O [Compound I-102, tert-butyl (R)-3-((6-carbamoyl-1-((1-(2-cyanoacetyl)piperidin-3-yl)oxy)-7-isopropoxyisoquinolin-4-yl)ethynyl)azetidine-1-carboxylate]	0.19	0.16	35.3	63
CC(C)Oc1cc2c(O[C@@H]3CCCN(C(=O)CC#N)C3)ncc(-c3cnn(CCC4CCOCC4)c3)c2cc1C(N)=O [Compound I-119, (R)-1-((1-(2-cyanoacetyl)piperidin-3-yl)oxy)-7-isopropoxy-4-(1-(2-(tetrahydro-2H-pyran-4-yl)ethyl)-1H-pyrazol-4-yl)isoquinoline-6-carboxamide]	2.51	2.22	18.4	1020
CC(C)Oc1cc2c(OC[C@@H]3CCC(=O)N3)ncc(-c3cnn(C4CCOCC4)c3)c2cc1C(N)=O [Compound I-35, (S)-7-isopropoxy-1-((5-oxopyrrolidin-2-yl)methoxy)-4-(1-(tetrahydro-2H-pyran-4-yl)-1H-pyrazol-4-yl)isoquinoline-6-carboxamide]	1.3	7.52	25.7	1620
CCO[C@H]1CC[C@H](C#Cc2cnc(OC[C@@H]3CCC(=O)N3)c3cc(OC(C)C)c(C(N)=O)cc23)CC1 [Compound I-20, 4-(((1r,4S)-4-ethoxycyclohexyl)ethynyl)-7-isopropoxy-1-(((S)-5-oxopyrrolidin-2-yl)methoxy)isoquinoline-6-carboxamide]	0.0688	0.11	7	63.4
CC(C)Oc1cc2c(OC[C@@H]3CCC(=O)N3)ncc(-c3cnn(C4CCC4)c3)c2cc1C(N)=O [Compound I-33, (S)-4-(1-cyclobutyl-1H-pyrazol-4-yl)-7-isopropoxy-1-((5-oxopyrrolidin-2-yl)methoxy)isoquinoline-6-carboxamide]	0.272	0.2	7.5	218
CC(C)Oc1cc2c(OC[C@@H]3CCC(=O)N3)ncc(-c3cnn(C4CCN(C(=O)OC(C)(C)C)CC4)c3)c2cc1C(N)=O [Compound I-44, tert-butyl (S)-4-(4-(6-carbamoyl-7-isopropoxy-1-((5-oxopyrrolidin-2-yl)methoxy)isoquinolin-4-yl)-1H-pyrazol-1-yl)piperidine-1-carboxylate]	0.727	0.937	20.9	1050
CC(C)Oc1cc2c(OC[C@@H]3CCC(=O)N3)ncc(C#CC3CCN(C(=O)OC(C)(C)C)CC3)c2cc1C(N)=O [Compound I-15, tert-butyl (S)-4-((6-carbamoyl-7-isopropoxy-1-((5-oxopyrrolidin-2-yl)methoxy)isoquinolin-4-yl)ethynyl)piperidine-1-carboxylate]	0.0874	0.525	15.9	71.9
CC(C)Oc1cc2c(OC[C@@H]3CC(F)(F)C(=O)N3)ncc(-c3cnn(C4CCN(C(=O)OC(C)(C)C)CC4)c3)c2cc1C(N)=O [Compound I-74, tert-butyl (S)-4-(4-(6-carbamoyl-1-((4,4-difluoro-5-oxopyrrolidin-2-yl)methoxy)-7-isopropoxyisoquinolin-4-yl)-1H-pyrazol-1-yl)piperidine-1-carboxylate]	0.141	0.395	11.2	493
CCO[C@H]1CC[C@H](C#Cc2cnc(O[C@@H]3CCCN(C(=O)CC#N)C3)c3cc(OC(C)C)c(C(N)=O)cc23)CC1 [Compound I-98, 1-(((R)-1-(2-cyanoacetyl)piperidin-3-yl)oxy)-4-(((1r,4R)-4-ethoxycyclohexyl)ethynyl)-7-isopropoxyisoquinoline-6-carboxamide]	0.22	0.484	25.5	136
CC(C)Oc1cc2c(OC[C@@H]3CCC(=O)N3)ncc(-c3cnn(C4CC4)c3)c2cc1C(N)=O [Compound I-32, (S)-4-(1-cyclopropyl-1H-pyrazol-4-yl)-7-isopropoxy-1-((5-oxopyrrolidin-2-yl)methoxy)isoquinoline-6-carboxamide]	0.45	2.21	8.5	569
CCO[C@H]1CC[C@@H](C#Cc2cnc(OC[C@@H]3CCC(=O)N3)c3cc(OC(C)C)c(C(N)=O)cc23)CC1 [Compound I-21, 4-((cis-4-ethoxycyclohexyl)ethynyl)-7-isopropoxy-1-(((S)-5-oxopyrrolidin-2-yl)methoxy)isoquinoline-6-carboxamide]	0.104	0.194	5.6	101
CC(C)Oc1cc2c(OC[C@@H]3CC(F)(F)C(=O)N3)ncc(-c3cnn([C@H]4C[C@@H](N(C)C)C4)c3)c2cc1C(N)=O [Compound I-73, 1-(((S)-4,4-difluoro-5-oxopyrrolidin-2-yl)methoxy)-4-(1-(cis-3-(dimethylamino)cyclobutyl)-1H-pyrazol-4-yl)-7-isopropoxyisoquinoline-6-carboxamide]	0.203	1.04	3	259
CC(C)Oc1cc2c(OC[C@@H]3CCC(=O)N3)ncc(-c3cn[nH]c3)c2cc1C(N)=O [Compound I-47, (S)-7-isopropoxy-1-((5-oxopyrrolidin-2-yl)methoxy)-4-(1H-pyrazol-4-yl)isoquinoline-6-carboxamide]	0.816	2.73	7.6	1870
CC(C)Oc1cc2c(OC[C@@H]3CCC(=O)N3)ncc(C#CCC3CCOCC3)c2cc1C(N)=O [Compound I-11, (S)-7-isopropoxy-1-((5-oxopyrrolidin-2-yl)methoxy)-4-(3-(tetrahydro-2H-pyran-4-yl)prop-1-yn-1-yl)isoquinoline-6-carboxamide]	0.32	0.474	10.5	199
CC(C)Oc1cc2c(O[C@@H]3CCCNC3)ncc(C#CC3CCOCC3)c2cc1C(N)=O [Compound I-86, (R)-7-isopropoxy-1-(piperidin-3-yloxy)-4-((tetrahydro-2H-pyran-4-yl)ethynyl)isoquinoline-6-carboxamide]	1.74	5.29	91.3	1030
CC(C)Oc1cc2c(OC[C@@H]3CC(F)(F)C(=O)N3)ncc(C#CC3CCOCC3)c2cc1C(N)=O [Compound I-49, (S)-1-((4,4-difluoro-5-oxopyrrolidin-2-yl)methoxy)-7-isopropoxy-4-((tetrahydro-2H-pyran-4-yl)ethynyl)isoquinoline-6-carboxamide]	0.0853	0.273	7.6	73.7
CC(C)Oc1cc2c(O[C@@H]3CCCN(C(=O)CC#N)C3)ncc(-c3cnn(CC4CCOCC4)c3)c2cc1C(N)=O [Compound I-118, (R)-1-((1-(2-cyanoacetyl)piperidin-3-yl)oxy)-7-isopropoxy-4-(1-((tetrahydro-2H-pyran-4-yl)methyl)-1H-pyrazol-4-yl)isoquinoline-6-carboxamide]	6.5	4.2	20.4	1500
CC(C)Oc1cc2c(OC[C@@H]3CC(F)(F)C(=O)N3)ncc(C#CC3CNC3)c2cc1C(N)=O [Compound I-63, (S)-4-(azetidin-3-ylethynyl)-1-((4,4-difluoro-5-oxopyrrolidin-2-yl)methoxy)-7-isopropoxyisoquinoline-6-carboxamide]	1.21	5.9	2.8	523
COC(=O)N1CCC(C#Cc2cnc(OC[C@@H]3CCC(=O)N3)c3cc(OC(C)C)c(C(N)=O)cc23)CC1 [Compound I-16, methyl (S)-4-((6-carbamoyl-7-isopropoxy-1-((5-oxopyrrolidin-2-yl)methoxy)isoquinolin-4-yl)ethynyl)piperidine-1-carboxylate]	0.0474	0.0886	11.9	245
CC(C)Oc1cc2c(OC[C@@H]3CC(F)(F)C(=O)N3)ncc(-c3cnn([C@H]4CC[C@](C)(O)CC4)c3)c2cc1C(N)=O [Compound I-78, 1-(((S)-4,4-difluoro-5-oxopyrrolidin-2-yl)methoxy)-4-(1-((1r,4S)-4-hydroxy-4-methylcyclohexyl)-1H-pyrazol-4-yl)-7-isopropoxyisoquinoline-6-carboxamide]	0.234	0.162	3.6	652
CC(C)Oc1cc2c(O[C@@H]3CCCN(C(=O)CC#N)C3)ncc(C#CC3CCN(C)CC3)c2cc1C(N)=O [Compound I-97, (R)-1-((1-(2-cyanoacetyl)piperidin-3-yl)oxy)-7-isopropoxy-4-((1-methylpiperidin-4-yl)ethynyl)isoquinoline-6-carboxamide]	0.752	1.98	15.4	250
